Consider ten compounds from publication PMC9818021, “Targets, Mechanisms and Cytotoxicity of Half-Sandwich Ir(III) Complexes Are Modulated by Structural Modifications on the Benzazole Ancillary Ligand” (Cancers, 2022).

Read-outs that look alike come from different tables or passages of the source.

Series [1] in a line: Aquation/solvolysis kinetics (UV-vis). The series is classed as physicochemical. How it is done: Aquation/solvolysis. Chloride displacement was qualitatively monitored by ^1H-NMR for some of the complexes in DMSO-d6. The replacement of the chloride by a DMSO molecule was observed as some peaks shifted and some new peaks appeared corresponding to the methyl groups of the DMSO molecule. Aquation/solvolysis equilibria were studied by kinetic UV-vis measurements.
(§1) The UV-vis measurements were performed with a Hewlett-Packard 8453A (Agilent Technologies, Palo Alto, CA, USA) photodiode array spectrophotometer with a Peltier temperature control system. Titrations were carried out at 25 °C by adding increasing amounts of DNA solution to the iridium complex solution. The pKa values were measured by analysing the absorbance change of iridium complex solutions recorded at different pH values. The melting experiments were carried out using a DNA solution varying the CIr-complex/CDNA (CD/CP) ratio from 0 to 1, keeping CP constant and recording the absorbance spectra while heating from 25 to 90 °C at 0.3 °C/min.
The slow kinetic measurements were performed with the previous spectrophotometer while the fast kinetic measurements were performed in a stopped flow Bio-Logic SFM-300 spectrophotometer with an absorbance detection system and dead time below 3 ms. The kinetic curves, obtained averaging out at least five shots, were analysed with the Jandel (AISN software, Mapleton, OR) fitting package.

Series [2] is described as follows: Acid dissociation constants from absorbance vs pH. The series is classed as physicochemical. The note with it: for pKa1: water dissociation to give the hydroxo complex; for pKa2: NH dissociation to give the N anion; for pKa: free ligand. How it is done: The pH measurements were carried out with a Metrohm 16 DMS Titrino pH meter fitted out with a combined glass electrode with a 3 M KCl solution as a liquid junction. HClO4 and NaOH solution were used to adjust the pH.
as §1

A short description of series [3]: Qualitative solubility. The series is classed as physicochemical. The note with it: 1-2 mg, solvent up to 1 mL. How it is done:
Solubility. The solubility of the complexes was qualitatively assessed. Different solvents were added drop-by-drop while shaking to a small amount of complex (around 1–2 mg) in a vial until the solvent added exceeded 1 mL. Afterwards, it was checked if the solid was or not completely dissolved and/or if the solution got coloured.

Series [4] concerns A2780 (epithelial ovarian carcinoma cells). Briefly: MTT cytotoxicity assay. The series is classed as cell-based, human. Particulars: A2780, 48 h. How it is done: (§2) Cell culture. Epithelial ovarian carcinoma cells (A2780) that acquired resistance to cisplatin epithelial ovarian carcinoma cells (A2780cis), colon adenocarcinoma cells (SW480) and epithelial lung adenocarcinoma cells (A549) were provided by Sigma Aldrich. A549 and SW480 cells were grown in Dulbecco′s Modified Eagle′s Medium (DMEM), supplemented with 10% Fetal Bovine Serum (FBS) and 1% penicillin, streptomycin and 1% glutamine for A549 and 1% amphotericin B for SW480. The A2780 and A2780cis were grown in RPMI 1640 supplemented with 10% Fetal Bovine Serum (FBS), 1% glutamine and 1% penicillin, streptomycin and amphotericin B. All cells were incubated in a humidified incubator at 37 °C under a 5% CO2 atmosphere and grown in 100 mm culture dishes to approximately 70–80% confluence. For subculturing, cells were detached with Trypsin-EDTA (Sigma). A549-gal were derived from A549 cultured in glucose-free medium supplemented with 10 mM galactose (Sigma) for at least 10 passes.
(§3) Cytotoxicity. MTT Assay and IC50 estimation. The cytotoxicity of 1[C,NH-Cl], 2[C,NMe-Cl], 3[N,NH-Cl]Cl, 4[N,NMe-Cl]Cl, 5[CNH2,NH-Cl]Cl, 6[CNH2,S-Cl]Cl, 7[CO,NH-Cl] and 8[CO,S-Cl] in A2780, A2780cis, SW480 and A549 carcinoma cells was evaluated by the MTT colorimetric assay. Cells were seeded in 96-well plates at 5000 cells per well and incubated at 37 °C, 5% CO2. After 24 h, the medium was removed and replaced with fresh medium with different concentrations of the compounds under study, and they were incubated for 48 h. Final DMSO concentration was kept below 0.7% in wells. For a negative control, one sequence of cells was left untreated and for vehicle control, cells treated with DMSO were included. For cell viability experiments preincubating with NAC (N-Acetyl-L-Cysteine), the cells were pre-treated with NAC, 10 mM for 2 h before the incubation with complex 1[C,NH-Cl] for 24 h. Then, the medium was removed from the wells, and 100 µL MTT (5 mg/mL) was added. After an incubation time of 4 h, 100 μL of solubilizing detergent solution (SDS, 10% in HCL 0.01 M) was added and kept in the incubator overnight. Cell growth inhibition was detected by measuring the absorbance of each well at 595 nm using a BioTek Cytation5 microplate reader. Each test was repeated in quadruplicate in three independent experiments for each cell line. The percentage of survival cells was calculated using absorbance measurements compared with control and the IC50 estimation using Graph Pad Prism version 6.01.

Series [5] deals with A2780cis (ovarian, acquired resistance to cisplatin). In words: MTT cytotoxicity assay. Particulars: A2780cis, 48 h. The series is classed as cell-based, human. How it is done:
as §2, §3

Series [6] relates to A549 (epithelial lung adenocarcinoma cells). In words: MTT cytotoxicity assay. The series is classed as cell-based, human. Particulars: A549, 48 h. How it is done: as §2, §3
The test system of series [7] is SW480 (colon adenocarcinoma cells). In words: MTT cytotoxicity assay. The note with it: SW480, 48 h. The series is classed as cell-based, human. How it is done: as §2, §3

On to `Cc1c(C)c(C)[c-](C)c1C.[OH2+][Ir]1[NH2+]c2ccccc2-c2sc3ccccc3[n+]21` [6[CNH2,S-H2O]2+], for which the “kaq (Cl-complex to H2O-complex)” value in series [1] (aqueous solution) is “(2.12 ± 0.01) × 10^−4 s-1”. Also, the pKa1 in series [2] is given as 8.70 ± 0.04. With `C[S+](C)(=O)[Ir]1[c]2ccccc2-c2[nH]c3ccccc3[n+]21.Cc1c(C)c(C)[c-](C)c1C.[Cl-]` [1[C,NH-DMSO]+, [(η^5-Cp*)Ir(DMSO)(κ^2-N,C-pbim)]Cl], in series [2], the pKa2 amounted to 8.44 ± 0.03. Also, the Solubility in water result in series [3] was “soluble in dimethyl sulfoxide and water”. In the case of `Cc1c(C)c(C)[c-](C)c1C.Cn1c2[n+](c3ccccc31)[Ir]([OH2+])[n+]1ccccc1-2` [4[N,NMe-H2O]2+], the pKa1 in series [2] is given as 7.48 ± 0.01. As to `c1ccc(-c2nc3ccccc3[nH]2)cc1` [2-phenylbenzimidazole], the pKa in series [2] (deprotonation of the pyridine type N atom, read-out: pKa1) came to 5.2 ± 0.1; in series [2] (pyrrole type N atom, read-out: pKa2) it was 11.8 ± 0.1. With `Cc1c(C)c(C)[c-](C)c1C.[OH2+][Ir]1[n+]2ccccc2-c2[nH]c3ccccc3[n+]21` [3[N,NH-H2O]2+], in series [2], the pKa2 is recorded as 8.44 ± 0.06 and the pKa1 worked out at 6.08 ± 0.04.

With `N.N.[Cl][Pt][Cl]` [cisPt, cisplatin, reference compound], the half-inhibitory concentration (IC50) amounted to 7 ± 1 µM in series [4], 60 ± 1 µM in series [5], 33 ± 6 µM in series [6] and 34 ± 1 µM in series [7]. On to `C[S+](C)(=O)[Ir]1[O]c2ccccc2-c2[nH]c3ccccc3[n+]21.Cc1c(C)c(C)[c-](C)c1C` [7[CO,NH-DMSO]+], for which the pKa2 in series [2] is given as 9.06 ± 0.06. For the compound `Cc1c(C)c(C)[c-](C)c1C.Cn1c2[n+](c3ccccc31)[Ir]([S+](C)(C)=O)[c]1ccccc1-2` [2[C,NMe-DMSO]+], the Acid-base equilibrium entry in series [2] (absorbance vs pH) is “did not exhibit any acid–base equilibrium”. For the compound `Cc1c(C)c(C)[c-](C)c1C.[OH2+][Ir]1[NH2+]c2ccccc2-c2[nH]c3ccccc3[n+]21` [5[CNH2,NH-H2O]2+], in series [2], the pKa2 was found to be 11.30 ± 0.17 and the pKa1 came to 7.48 ± 0.04.

Consider `C[S+](C)(=O)[Ir]1[O]c2ccccc2-c2sc3ccccc3[n+]21.Cc1c(C)c(C)[c-](C)c1C` [8[CO,S-DMSO]+], for which, in series [1] (in DMSO), the “kDMSO (Cl-complex to DMSO-complex)” value is recorded as “(3.11 ± 0.25) × 10^−4 s-1”.
